Test systems include A498 renal; HCC-2998 colon; KM12 colon; MCF7 breast; NCI-H23 lung; NCI/ADR-RES ovarian; RXF 393 renal; SK-MEL-5 melanoma; SN12C renal; SNB-75 CNS.
Common to all, as to experiment: inhibition of tumour cell growth, NCI panel, 48 h

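Tested at 5 concentrations; 48 h exposure; 96-well plates; endpoints linearly interpolated, else capped at highest concentration. At the GI50, growth is halved. TGI: concentration producing complete growth inhibition.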 A value given as a limit tells only on which side of the number the result lay.

In the case of `CC1(C)C2CCC13C(=O)C1OC3(C2)C2C(=O)c3c(O)cccc3C(=O)C12` (stereo not given), the GI50 in the experiment with A498 renal is 1.89 µM; in the experiment with HCC-2998 colon it was 1.94 µM; in the experiment with KM12 colon, 2.6 µM; in the experiment on MCF7 breast, 3.37 µM; in the experiment on NCI-H23 lung, 2.24 µM; in the experiment with NCI/ADR-RES ovarian, 2.1 µM. For the same molecule, the GI50 with RXF 393 renal is 1.56 µM; in the experiment on SK-MEL-5 melanoma it was 0.46 µM; in the experiment on SN12C renal it was 0.711 µM; with SNB-75 CNS it was 7.28 µM. The TGI is 3.49 µM in the experiment on A498 renal; 4.16 µM with HCC-2998 colon; 14.9 µM in the experiment on KM12 colon; 15.4 µM in the experiment with MCF7 breast; 6.55 µM in the experiment with NCI-H23 lung; 6.01 µM in the experiment on NCI/ADR-RES ovarian. Further, the TGI is 3.5 µM in the experiment with RXF 393 renal, 1.64 µM with SK-MEL-5 melanoma, 1.84 µM with SN12C renal and 22.3 µM in the experiment with SNB-75 CNS.

For the molecule `O=C(O)Cn1ccnc1[N+](=O)[O-]`, the TGI in the experiment with A498 renal, with HCC-2998 colon, with KM12 colon, in the experiment on MCF7 breast, in the experiment on NCI-H23 lung and in the experiment with NCI/ADR-RES ovarian was more than 100 µM in each case. The TGI in the experiment with RXF 393 renal, with SK-MEL-5 melanoma, with SN12C renal and with SNB-75 CNS was more than 100 µM throughout.

Take `O=C(Nc1ccc(Cl)cc1)Nc1ccccc1CNc1nc(Nc2ccc(OCCN3CCCC3)cc2)ncc1Cl`: the GI50 with A498 renal was 5.22 µM; with HCC-2998 colon it was 1.22 µM; in the experiment with KM12 colon it was 1.04 µM; in the experiment with MCF7 breast, 0.895 µM; with NCI-H23 lung it was 2.53 µM; with NCI/ADR-RES ovarian, 1.16 µM. For the same molecule, the GI50 with RXF 393 renal is 0.898 µM; with SK-MEL-5 melanoma, 0.845 µM; in the experiment with SN12C renal, 0.913 µM; in the experiment on SNB-75 CNS, 2.1 µM. Moreover, the TGI was 12.3 µM with A498 renal; 3.38 µM in the experiment on HCC-2998 colon; 2.2 µM with KM12 colon; 1.84 µM in the experiment with MCF7 breast; 10 µM in the experiment with NCI-H23 lung; 2.64 µM in the experiment with NCI/ADR-RES ovarian. Further, the TGI with RXF 393 renal is 1.76 µM; in the experiment on SK-MEL-5 melanoma it was 1.53 µM; in the experiment on SN12C renal, 1.74 µM; in the experiment with SNB-75 CNS it was 9.28 µM.

As to `CN(C)C(=O)SC1=C(c2c(Cl)cccc2Cl)C(=O)c2ccccc21`, the GI50 is 16.1 µM in the experiment on A498 renal; 15.6 µM with HCC-2998 colon; 14.8 µM with KM12 colon; 2.51 µM with MCF7 breast; 7.14 µM in the experiment on NCI-H23 lung; 9.42 µM with NCI/ADR-RES ovarian. Further, the GI50 in the experiment on RXF 393 renal is 4.18 µM; with SK-MEL-5 melanoma it was 7.16 µM; in the experiment on SN12C renal, 6.18 µM; in the experiment on SNB-75 CNS, 7.94 µM. In addition, the TGI with A498 renal stood at 31.7 µM; in the experiment with HCC-2998 colon, 29.2 µM; with KM12 colon it was 28.6 µM; in the experiment on MCF7 breast it was 7.73 µM; in the experiment on NCI-H23 lung, 19 µM; with NCI/ADR-RES ovarian it was 25.8 µM. Also, the TGI in the experiment on RXF 393 renal turned out to be 8.59 µM; in the experiment with SK-MEL-5 melanoma it was 19.2 µM; in the experiment on SN12C renal, 17.7 µM; in the experiment with SNB-75 CNS, 23.9 µM.

In the case of `Nc1ncnc2c1c(-c1ccc(Oc3ccccc3)cc1)nn2C[C@@H]1SSC[C@@H]1O`, the GI50 with A498 renal is 2.01 µM; with HCC-2998 colon it was 0.479 µM; in the experiment on KM12 colon, 0.18 µM; in the experiment on MCF7 breast, 0.129 µM; in the experiment on NCI-H23 lung, 0.333 µM; in the experiment on NCI/ADR-RES ovarian, 1.05 µM. Moreover, the GI50 is 1.46 µM in the experiment on RXF 393 renal, 0.25 µM in the experiment on SK-MEL-5 melanoma, 0.762 µM in the experiment with SN12C renal and 1.78 µM in the experiment on SNB-75 CNS. The TGI in the experiment with A498 renal is 5.35 µM; in the experiment with HCC-2998 colon, 14.8 µM; in the experiment with KM12 colon, 12.1 µM; in the experiment on MCF7 breast it was 1.31 µM; with NCI-H23 lung it was 7.93 µM; in the experiment with NCI/ADR-RES ovarian, 7.8 µM. Besides, the TGI with RXF 393 renal stood at 5.6 µM; with SK-MEL-5 melanoma, 0.684 µM; in the experiment with SN12C renal it was 11 µM; in the experiment with SNB-75 CNS, 7.56 µM.

`NC(=O)c1cc(I)ccc1NC(=O)COc1ccccc1`: the GI50 with A498 renal is 1.27 µM; in the experiment with HCC-2998 colon, 2.5 µM; with KM12 colon, 0.328 µM; in the experiment with MCF7 breast it was 0.279 µM; in the experiment on NCI-H23 lung it was 0.822 µM; in the experiment on NCI/ADR-RES ovarian, 0.329 µM. Further, the GI50 with RXF 393 renal was 0.453 µM; in the experiment with SK-MEL-5 melanoma, 0.533 µM; in the experiment with SN12C renal, 2.3 µM; in the experiment on SNB-75 CNS, 0.316 µM. The TGI in the experiment with A498 renal is 7.26 µM; in the experiment on HCC-2998 colon, more than 100 µM; in the experiment with KM12 colon it was more than 100 µM; in the experiment with MCF7 breast, more than 100 µM; in the experiment on NCI-H23 lung, 22.4 µM; in the experiment on NCI/ADR-RES ovarian it was 5.43 µM. Further, the TGI in the experiment on RXF 393 renal is 4.53 µM; in the experiment with SK-MEL-5 melanoma it was more than 100 µM; with SN12C renal, more than 100 µM; with SNB-75 CNS, 4.49 µM.

As to `CC(C)(CO)N=Cc1ccccc1[O-].CC(C)(CO)N=Cc1ccccc1[O-].[Co+2]`, the GI50 in the experiment with A498 renal was more than 100 µM; in the experiment on HCC-2998 colon it was 75.4 µM; with KM12 colon it was more than 97.8 µM; in the experiment on MCF7 breast it was 27.3 µM; in the experiment with NCI-H23 lung, 72.7 µM; in the experiment with NCI/ADR-RES ovarian, more than 100 µM. Also, the GI50 in the experiment with RXF 393 renal is more than 100 µM; in the experiment with SK-MEL-5 melanoma it was 42.5 µM; in the experiment on SN12C renal, more than 96.6 µM; in the experiment with SNB-75 CNS, more than 86.4 µM. Besides, the TGI with A498 renal, with HCC-2998 colon, with KM12 colon, in the experiment on MCF7 breast, with NCI-H23 lung and with NCI/ADR-RES ovarian was more than 100 µM each time. For the same molecule, the TGI in the experiment on RXF 393 renal, with SK-MEL-5 melanoma, in the experiment with SN12C renal and in the experiment with SNB-75 CNS was more than 100 µM each time.

For the origin of these results see PubChem BioAssay (NCI).
